From patent US9409952B2, “Peptide-compound cyclization method” (Chugai Seiyaku Kabushiki Kaisha, priority 2011, dated 2016)
Positions of bridges follow the written chain, without caps; N, C: chain ends. Non-standard residues stand in square brackets, D forms with d. Residues, ends and D or L forms follow the SMILES beside them. *: point of attachment. Ala(4-thiazolyl) = N[C@@H](Cc1cscn1)C(=O)O; Met(O2) = CS(=O)(=O)CC[C@H](N)C(=O)O; Lys(Me2) = CN(C)CCCC[C@H](N)C(=O)O; NMeF = CN[C@@H](Cc1ccccc1)C(=O)O; Aoc(2) = CCCCCC[C@H](N)C(=O)O; NMeL = CN[C@@H](CC(C)C)C(=O)O; NMeS = CN[C@@H](CO)C(=O)O; NMeA = CN[C@@H](C)C(=O)O; Piperidide = C1CCN(*)CC1; β3hA = C[C@H](N)CC(=O)O; Abu = CC[C@H](N)C(=O)O; Sar = CNCC(=O)O

Columns and labels:
[1] = PAMPA (parallel artificial membrane permeability assay); assay type: in vitro ADME; conditions: PAMPA; membrane permeation rate (Pe); 50 mM MOPSO buffer pH 6.5 with 5.0% glycocholic acid, 37° C., 18 hours; read-out: iPAMPA Pe
Outline: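 Artificial membrane was 10% (w/v) egg lecithin plus 0.5% (w/v) cholesterol in dodecane on a PVDF filter. A 10 mM DMSO stock was added at 0.5% (v/v) to donor buffer (50 mM MOPSO, pH 6.5, 5.0% glycocholic acid). After 18 h at 37 °C, LC/MS or LC/UV gave donor and acceptor levels for Pe.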

[2] = Metabolic stability in human hepatic microsome; assay type: in vitro ADME; conditions: microsomes, pH 7.4; human hepatic microsome, NADPH(+); read-out: CL NADPH(+)

| SMILES | Papp at 18 hours, 50 µM [1] [×10⁻⁶ cm/s] | microsomal CLint at 1 uM [2] [µL/min/mg] |
| --- | --- | --- |
| CC(C)C[C@H]1C(=O)N(C)[C@@H](Cc2ccccc2)C(=O)N(C)[C@@H](CC(C)C)C(=O)N[C@@H]([C@@H](C)O)C(=O)N[C@H](C(=O)N2CCCCC2)CC(=O)N[C@H](C(C)C)C(=O)N(C)[C@@H](C)C(=O)N(C)[C@@H](CC(C)C)C(=O)N[C@@H](CCS(C)(=O)=O)C(=O)N(C)[C@@H](Cc2ccccc2)C(=O)N[C@@H](Cc2ccccc2)C(=O)N1C [DP-621] ([dV][NMeA][NMeL][Met(O2)][NMeF]F[NMeL][NMeF][NMeL]TD-Piperidide; lactam N-11) | 21 | 11 |
| CC(C)C[C@@H]1NC(=O)[C@H](CC(C)C)N(C)C(=O)[C@H](C)N(C)C(=O)[C@@H](C(C)C)NC(=O)C[C@@H](C(=O)N2CCCCC2)NC(=O)[C@H](Cc2cscn2)NC(=O)[C@H](C)N(C)C(=O)[C@H](C)N(C)C(=O)[C@H](C)N(C)C(=O)[C@H](Cc2ccccc2)NC(=O)[C@H](Cc2ccccc2)N(C)C1=O [DP-624] ([dV][NMeA][NMeL]L[NMeF]F[NMeA][NMeA][NMeA][Ala(4-thiazolyl)]D-Piperidide; lactam N-11) | 24 | 30 |
| CC(C)C[C@@H]1NC(=O)[C@H](CC(C)C)N(C)C(=O)[C@H](C)N(C)C(=O)[C@@H](C(C)C)NC(=O)C[C@@H](C(=O)N2CCCCC2)NC(=O)[C@H]([C@@H](C)O)NC(=O)[C@H](Cc2ccccc2)N(C)C(=O)[C@H](C)N(C)C(=O)[C@H](CC(C)C)N(C)C(=O)[C@H](Cc2cscn2)NC(=O)[C@H](Cc2ccccc2)N(C)C1=O [DP-625] ([dV][NMeA][NMeL]L[NMeF][Ala(4-thiazolyl)][NMeL][NMeA][NMeF]TD-Piperidide; lactam N-11) | 26 | 27 |
| CNC(=O)CC[C@@H]1NC(=O)[C@H](CC(C)C)N(C)C(=O)[C@H](C)N(C)C(=O)[C@H](CC(C)C)N(C)C(=O)[C@H](Cc2ccccc2)NC(=O)[C@H](Cc2ccccc2)N(C)C(=O)[C@H](CC(C)C)NC(=O)[C@H](CC(C)C)N(C)C(=O)[C@H](C)N(C)C(=O)[C@@H](C(C)C)NC(=O)C[C@@H](C(=O)N2CCCCC2)NC1=O [DP-626] ([dV][NMeA][NMeL]L[NMeF]F[NMeL][NMeA][NMeL]E(NHMe)D-Piperidide; lactam N-11) | 36 | 28 |
| CNC(=O)CC[C@@H]1NC(=O)[C@H](CC(C)C)N(C)C(=O)[C@H](C)N(C)C(=O)[C@@H](C(C)C)NC(=O)C[C@@H](C(=O)N2CCCCC2)NC(=O)[C@H]([C@@H](C)O)NC(=O)[C@H](C)N(C)C(=O)CN(C)C(=O)[C@H](CC(C)C)N(C)C(=O)[C@H](Cc2ccccc2)NC(=O)[C@H](Cc2ccccc2)N(C)C1=O [DP-627] ([dV][NMeA][NMeL]E(NHMe)[NMeF]F[NMeL][Sar][NMeA]TD-Piperidide; lactam N-11) | 2.4 | 9 |
| CC(C)C[C@H]1C(=O)N(C)[C@@H](CC(C)C)C(=O)N[C@H](C(=O)N(C)[C@@H](Cc2ccccc2)C(=O)N[C@@H](C)C(=O)N2CCCCC2)CC(=O)N[C@H](C(C)C)C(=O)N(C)[C@@H](C)C(=O)N(C)[C@@H](Cc2ccccc2)C(=O)N(C)[C@@H](C)C(=O)N[C@@H](CCCCN(C)C)C(=O)N(C)CC(=O)N[C@@H](C(C)C)C(=O)N1C [DP-631] ([dV][NMeA][NMeF][NMeA][Lys(Me2)][Sar]V[NMeL][NMeL]D[NMeF]A-Piperidide; lactam N-10) | 1.6 | 5 |
| CC(C)C[C@@H]1NC(=O)[C@H](CO)N(C)C(=O)[C@H](CC(C)C)N(C)C(=O)[C@H](CC(C)C)N(C)C(=O)[C@H](CC(C)C)N(C)C(=O)[C@@H](C)NC(=O)C[C@H](C)NC(=O)[C@H](CC(C)C)N(C)C(=O)[C@H](CC(C)C)NC(=O)[C@H](CC(C)C)N(C)C(=O)CN(C)C1=O [DP-639] (cyclo(L[NMeL][β3hA][dA][NMeL][NMeL][NMeL][NMeS]L[Sar][NMeL])) | 33 | 134 |
| CC[C@@H]1NC(=O)[C@H](CC(C)C)N(C)C(=O)[C@H](CC(C)C)NC(=O)[C@H](CC(C)C)N(C)C(=O)CN(C)C(=O)C[C@H](C)NC(=O)[C@H](CO)N(C)C(=O)[C@H](CC(C)C)N(C)C(=O)[C@H](CC(C)C)N(C)C(=O)[C@H](CC(C)C)N(C)C(=O)[C@@H](CC(C)C)NC1=O [DP-641] (cyclo([Abu][dL][NMeL][NMeL][NMeL][NMeS][β3hA][Sar][NMeL]L[NMeL])) | 46 | 91 |
| CC(C)C[C@@H]1NC(=O)[C@H](CC(C)C)N(C)C(=O)[C@H](C(C)C)NC(=O)[C@H](CC(C)C)N(C)C(=O)CN(C)C(=O)[C@H](CC(C)C)NC(=O)[C@H](CO)N(C)C(=O)[C@H](CC(C)C)N(C)C(=O)[C@H](CC(C)C)N(C)C(=O)C[C@H](C)NC(=O)[C@@H](CC(C)C)NC1=O [DP-642] (cyclo(L[Sar][NMeL]V[NMeL]L[dL][β3hA][NMeL][NMeL][NMeS])) | 32 | 65 |
| CC(C)C[C@@H]1NC(=O)C[C@H](C)NC(=O)[C@H](C(C)C)NC(=O)[C@H](CC(C)C)N(C)C(=O)CN(C)C(=O)[C@H](CC(C)C)NC(=O)[C@H](CO)N(C)C(=O)[C@H](CC(C)C)N(C)C(=O)[C@H](CC(C)C)N(C)C(=O)[C@H](CC(C)C)N(C)C(=O)[C@@H](CC(C)C)NC1=O [DP-643] (cyclo(L[Sar][NMeL]V[β3hA]L[dL][NMeL][NMeL][NMeL][NMeS])) | 29 | 24 |
| CC(C)C[C@@H]1NC(=O)[C@H](CO)N(C)C(=O)[C@H](CC(C)C)N(C)C(=O)[C@H](CC(C)C)N(C)C(=O)[C@H](CC(C)C)N(C)C(=O)C[C@H](C)NC(=O)[C@H](C)NC(=O)[C@H](CC(C)C)N(C)C(=O)[C@H](CC(C)C)NC(=O)[C@H](CC(C)C)N(C)C(=O)CN(C)C1=O [DP-644] (cyclo(A[β3hA][NMeL][NMeL][NMeL][NMeS]L[Sar][NMeL]L[NMeL])) | 33 | 80 |
| CCCCCC[C@@H]1NC(=O)[C@H](CO)N(C)C(=O)[C@H](CC(C)C)N(C)C(=O)[C@H](CC(C)C)N(C)C(=O)[C@H](CC(C)C)N(C)C(=O)[C@@H](C)NC(=O)[C@H](CC)NC(=O)[C@H](CC(C)C)N(C)C(=O)C[C@H](C)NC(=O)[C@H](CC(C)C)N(C)C(=O)CN(C)C1=O [DP-645] (cyclo([Abu][dA][NMeL][NMeL][NMeL][NMeS][Aoc(2)][Sar][NMeL][β3hA][NMeL])) | 49 | 74 |
| CCCCCC[C@@H]1NC(=O)[C@H](CC(C)C)N(C)C(=O)C[C@H](C)NC(=O)[C@H](CC)NC(=O)[C@H](CO)N(C)C(=O)[C@H](CC(C)C)N(C)C(=O)[C@H](CC(C)C)N(C)C(=O)[C@H](CC(C)C)N(C)C(=O)[C@@H](C)NC(=O)[C@H](C)NC(=O)[C@H](CC(C)C)N(C)C1=O [DP-646] (cyclo(A[dA][NMeL][NMeL][NMeL][NMeS][Abu][β3hA][NMeL][Aoc(2)][NMeL])) | 29 | 139 |
| CCCCCC[C@@H]1NC(=O)[C@H](CC(C)C)N(C)C(=O)CN(C)C(=O)[C@H](CC(C)C)NC(=O)C[C@H](C)NC(=O)[C@H](CC(C)C)N(C)C(=O)[C@H](CC(C)C)N(C)C(=O)[C@H](CC(C)C)N(C)C(=O)[C@@H](C)NC(=O)[C@H](CO)NC(=O)[C@H](CC(C)C)N(C)C1=O [DP-647] (cyclo([Aoc(2)][NMeL]S[dA][NMeL][NMeL][NMeL][β3hA]L[Sar][NMeL])) | 29 | 132 |
| CCCCCC[C@@H]1NC(=O)[C@H](CO)N(C)C(=O)C[C@H](C)NC(=O)[C@H](CC(C)C)N(C)C(=O)[C@H](CC(C)C)N(C)C(=O)[C@@H](CC(C)C)NC(=O)[C@H](CC)NC(=O)[C@H](CC(C)C)N(C)C(=O)[C@H](C(C)C)NC(=O)[C@H](CC(C)C)N(C)C(=O)CN(C)C1=O [DP-648] (cyclo([Abu][dL][NMeL][NMeL][β3hA][NMeS][Aoc(2)][Sar][NMeL]V[NMeL])) | 53 | 109 |
| CC(C)C[C@@H]1NC(=O)[C@H](CO)N(C)C(=O)[C@H](CC(C)C)N(C)C(=O)[C@H](CC(C)C)N(C)C(=O)[C@H](CC(C)C)N(C)C(=O)[C@@H](C)NC(=O)[C@H](C)NC(=O)[C@H](CC(C)C)N(C)C(=O)C[C@H](C)NC(=O)[C@H](CC(C)C)N(C)C(=O)CN(C)C1=O [DP-649] (cyclo(A[dA][NMeL][NMeL][NMeL][NMeS]L[Sar][NMeL][β3hA][NMeL])) | 22 | 27 |
| CC[C@@H]1NC(=O)[C@H](CO)N(C)C(=O)[C@H](CC(C)C)N(C)C(=O)[C@H](CC(C)C)N(C)C(=O)[C@H](CC(C)C)N(C)C(=O)[C@@H](CC(C)C)NC(=O)[C@H](C)NC(=O)[C@H](CC(C)C)N(C)C(=O)[C@H](C)NC(=O)[C@H](CC(C)C)N(C)C(=O)C[C@H](C)NC1=O [DP-650] (cyclo(A[NMeL]A[dL][NMeL][NMeL][NMeL][NMeS][Abu][β3hA][NMeL])) | 26 | 33 |
| CC[C@@H]1NC(=O)C[C@H](C)NC(=O)[C@H](CC(C)C)N(C)C(=O)[C@H](CC(C)C)N(C)C(=O)[C@H](CC(C)C)N(C)C(=O)[C@@H](C)NC(=O)[C@H](CO)NC(=O)[C@H](CC(C)C)N(C)C(=O)[C@H](CC(C)C)NC(=O)[C@H](CC(C)C)N(C)C(=O)CN(C)C1=O [DP-651] (cyclo([Abu][Sar][NMeL]L[NMeL]S[dA][NMeL][NMeL][NMeL][β3hA])) | 24 | 68 |
| CC(C)C[C@@H]1NC(=O)[C@H](CO)N(C)C(=O)C[C@H](C)NC(=O)[C@H](CC(C)C)N(C)C(=O)[C@H](CC(C)C)N(C)C(=O)[C@@H](C)NC(=O)[C@H](C(C)C)NC(=O)[C@H](CC(C)C)N(C)C(=O)[C@H](C(C)C)NC(=O)[C@H](CC(C)C)N(C)C(=O)CN(C)C1=O [DP-652] (cyclo(L[Sar][NMeL]V[NMeL]V[dA][NMeL][NMeL][β3hA][NMeS])) | 30 | 51 |
